Test results reported in US4312866A, “Use of rifamycin SV and its related salts in the treatment of rheumatoid arthritis, and related formulations suited for the purpose” (priority 1979, dated 1982).
Entries after “also recorded” stand apart in the source; their conditions may differ. Where a name gives a salt, the structure may show the parent alone. Each block holds one molecule with its values, some of them ahead of it.

Key:
[1] = Stability of solutions and lyophilyzed salts; format: physicochemical; settings: dry state
[2] = Solubility of the salts; format: physicochemical
[3] = Comparison of synovial fluid rifamycin levels, sodium salt vs arginine salt (Table 2); format: in vivo, patients; settings: equivalent to 500 mg rifamycin SV; for concentration at 5 min / concentration at 1 h / concentration at 2 h / concentration at 4 h / concentration at 8 h: human, synovial fluid, mean of eight determinations
[4] = system: rheumatoid synovitis; experiment: Clinical trials (open and double-blind) in rheumatoid synovitis; format: in vivo, patients
Experimental: The effects of intra-articular injections of rifamycin SV solutions in rheumatoid synovitis were assessed in two clinical trials, one carried out according to an open technique and the other one according to a double-blind experimental design. A total of 35 patients was treated, with an intra-articular injection of 200-500 mg weekly, for a maximum of 10 weeks. The patients were followed up for three years. The following laboratory diagnostic tests were made weekly on the synovial fluids: white blood cell differential count, RA test, Waaler-Rose test, latex test, immunoglobulins, T and B lymphocytes, C3 and C4 levels, glucose, acid phosphatase.
Bioptic examinations were carried out both before and after various months (1-18) after the start of the treatment.

[5] = system: persistent effusions in one or both knees
Experimental: In a second clinical experimental course, 75 patients, presenting with persistent effusions in one or both knees were given 500 mg of rifamycin SV (in the form of a L-arginine salt) every seven days, still by intra-articular injection.

[6] = clinical; settings: in vivo
Experimental: (§1) The rifamycin levels, present in the biological fluids of treated patients, were assayed by high pressure liquid chromatography (HPLC), a method more reliable and reproducible than the ultraviolet or microbiological method.
(§2) The synovial fluid samples were directly injected into the chromatograph after precipitation of the proteins with acetonitrile on the other hand, the serum samples had to be previously extracted with ethyl acetate at an acid pH.
(§3) A Hewlett Packard chromatograph is used, model 104 B, fitted with a fixed wave length detector (254 nm); RP 18 (10 mc) column, 25-cm length, […].
(§4) The following eluent is used: (A) an 80:20 mixture of 0.01 M phosphate buffer at pH 7 and acetonitrile; (B) acetonitrile. The gradient shifts from the 10 percent of B to the 70 percent of B within 15 minutes; the flow is 1.6 ml/minute.
(§5) The temperature of the oven is 35° C.; that of the eluent A is 60 percent and the one of the eluent B 40 percent.
(§6) Rifamycin SV and its oxidized form, ie rifamycin S, are used as standard.
In order to establish the standard lines in the synovial fluid, 500 mg of each single compound are dissolved in one liter exactly of a 1:1 water-methanol mixture.
(§7) The two absorption lines are made up injecting 5 mcl, 10 mcl and 15 mcl of said solutions into the chromatograph.
Determination of rifamycin SV in the synovial fluid
This determination is directly carried out on the deproteinized synovial fluid. 200 mcl of sample are introduced into a centrifuge test tube, and added with 2 ml of acetonitrile.
The resulting solution is stirred, and allowed to decant; 20 mcl of supernatant fluid are thereafter injected into the chromatograph. The samples are analyzed immediately in order to prevent the oxidation of rifamycin SV into rifamycin S.
(§8) The data are expressed as mcg/ml.

[7] = system: rheumatoid arthritis; experiment: Intra-articular injections in rheumatoid arthritis (general statement); format: in vivo; settings: rheumatoid arthritis patients
[8] = system: cultures of synovial membrane fragments; experiment: Inhibiting activity on cultures of synovial membrane fragments; format: cell-based; settings: needle biopsy, patients with suspected rheumatoid arthritis
Source text: (§9) Two of the 75 patients had to stop the treatment because of the above mentioned untoward side effect.

[9] = pH of aqueous solutions of the salts; format: physicochemical
[10] = system: joint sites other than the knee (wrist, hand's metacarpophalangeal and interphalangeal joints, tibiotarsal joints, etc); experiment: Infiltrations into joint sites other than the knee; format: in vivo, patients; settings: approximately 300 joints
Source text: as §9

[11] = Rifamycin levels in monoarthritic guinea-pig after intra-articular administration; format: in vivo; settings: monoarthritic guinea-pig (gamma-globulin arthritis)
Source text: The observation that in the monoarthritic guinea-pig (gamma-globulin arthritis) rifamycin arginine salt levels, 10 times higher than in the case of rifamycin sodium salt, can be observed following an intra-articular administration of either rifamycin sodium salt or arginine salt, proves in full agreement with the above mentioned datum.

[12] = system: rabbit's spinal sac; experiment: Local tolerability after injection into the rabbit's spinal sac; format: in vivo; settings: 60-mg injection once daily for three consecutive days, versus commercial solutions of rifamycin SV
[13] = in vivo
Experimental: as §1, §2, §3, §4, §5, §6, §7
The previous solutions are ten-fold diluted in the case of sera standard lines; the above mentioned operations are thereafter repeated.
Determination of Rifamycin in the Serum […]
as §8

[14] = synovial fluid, end of the treatment

solubility in water [2]: scarcely soluble in water
concentration at 5 min [3]: 6700 ± 200 µg/mL
concentration at 1 h [3]: 1530 ± 490 µg/mL
concentration at 2 h [3]: 485 ± 180 µg/mL
concentration at 4 h [3]: 439 ± 180 µg/mL
concentration at 8 h [3]: 140 ± 67 µg/mL
Compound: CO[C@H]1/C=C/O[C@@]2(C)Oc3c(C)c(O)c4c(O)c(cc(O)c4c3C2=O)NC(=O)/C(C)=C\C=C\[C@H](C)[C@H](O)[C@@H](C)[C@@H](O)[C@@H](C)[C@H](OC(C)=O)[C@@H]1C [rifamycin SV sodium salt, reference compound]
preservation of lyophilyzed salt [1]: can be preserved for years at room temperature

Compound: COC1C=COC2(C)Oc3c(C)c(O)c4c(O)c(cc(O)c4c3C2=O)NC(=O)C(C)=CC=CC(C)C(O)C(C)C(O)C(C)C(OC(C)=O)C1C (centres unmarked) [rifamycin SV]
patients with reappearance of exudate ([4]; 35 patients, followed up for three years): two
disappearance of exudate ([4]; 200-500 mg weekly intra-articular, maximum 10 weeks): completely disappeared after the third and within the tenth instillation
histological variations of the knees ([4]; biopsies before and 1-18 months after start of treatment): reduction of synovial cell infiltrates; also recorded: increase of newly-formed connective tissue; also recorded: surrounding areas with a residual hyperplastic synovia; also recorded: depositions of a new partially organized fibrin
immunological parameters ([4]; end of the treatment): No variations
RA cells [4, 14]: significant drop
polymorphocyte percentage [4, 14]: significant drop
total leukocytes [4, 14]: significant drop
initial local pain ([5]; human, in vivo): majority of the patients
patients who had to stop the treatment because of side effect ([5]; human, in vivo): Two
patients with local retarded painful reaction ([5]; human, in vivo): 28 patients
diffusion of rifamycin SV injected into the joint [6]: scarce diffusion
rifamycin species present in the synovial fluid [6]: Only rifamycin SV is present in the synovial fluid
resolution of the pathologic condition [7]: rapid resolution of the pathologic condition as well as to the patient's complete cure
inhibiting activity on cultures of synovial membrane fragments [8]: inhibiting activity of rifamycin SV was demonstrated

Compound: COC1C=COC2(C)Oc3c(C)c(O)c4c(O)c(cc(O)c4c3C2=O)NC(=O)C(C)=CC=CC(C)C(O)C(C)C(O)C(C)C(OC(C)=O)C1C (centres unmarked) [histidine salt, rifamycin SV salt with histidine]
pH of 20 percent aqueous solutions ([9]; 20 percent aqueous solutions): 6.4-6.7
solubility in acetone [2]: good
solubility in benzene ([2]; benzene): practically nil
solubility in ethanol ([2]; ethanol): good
solubility in ether ([2]; ether): practically nil
solubility in ethyl acetate [2]: practically nil
solubility in isopropanol ([2]; isopropanol): practically nil
solubility in methanol [2]: high
solubility in water [2]: high

Compound: COC1C=COC2(C)Oc3c(C)c(O)c4c(O)c(cc(O)c4c3C2=O)NC(=O)C(C)=CC=CC(C)C(O)C(C)C(O)C(C)C(OC(C)=O)C1C [L-arginine salt of rifamycin SV, rifamycin SV salt with arginine]
pH of 10 percent aqueous solution ([9]; 10 percent aqueous solution): 6.7
patients with complete subsidence of effusions and marked clinical improvement ([5]; 500 mg rifamycin SV every seven days intra-articular, of 75 patients): seventy-two
patients with effusional relapse ([5]; 1-6 months after the start of the treatment): 3 patients
patients not responding to 12 infiltrations ([5]; 12 infiltrations): one
synovial fluid leukocytes ([5]; P<0.001): significant decrease
C3 and C4 complemental fractions in synovial fluid ([5]; P<0.005): increase
relation of number of infiltrations with activity of the local synovitis ([5]; P<0.05): strictly related
patients requiring 1-3 infiltrations to induce effusion subsidence ([5]; out of 72): 12 patients
patients requiring 4-6 infiltrations to induce effusion subsidence ([5]; out of 72): 33 patients
patients requiring 7-12 infiltrations to induce effusion subsidence ([5]; out of 72): 27 patients
concentration at 0.25 h ([6]; human): 4930 ± 550 µg/mL
analgesic and anti-inflammatory activity [10]: potent analgesic and anti-inflammatory activity
joint function [10]: overall improvement of joint function
morning stiffness [10]: marked reduction, and quite often in a complete subsidence
rifamycin arginine salt levels vs rifamycin sodium salt [11]: 10 times higher
solubility in acetone ([2]; listed as arginine salt): highly soluble
solubility in chloroform ([2]; chloroform): sparingly soluble
solubility in ethyl acetate ([2]; listed as arginine salt): sparingly soluble
solubility in methanol ([2]; listed as arginine salt): highly soluble
solubility in water ([2]; listed as arginine salt): highly soluble
solubility in water ([2]; listed as arginine salt of rifamycin SV): optimal water solubility properties
synovial fluid levels compared with sodium salt ([3]; intra-articular): marked superiority
concentration at 5 min [3]: 7160 ± 2100 µg/mL
concentration at 1 h [3]: 3850 ± 800 µg/mL
concentration at 2 h [3]: 1730 ± 1000 µg/mL
concentration at 4 h [3]: 750 ± 300 µg/mL
concentration at 8 h [3]: 173 ± 100 µg/mL
local tolerability [12]: optimal and definitely better than that observed in the case of commercial solutions

rifamycin species present in the serum [13]: serum also contains rifamycin S
Compound: COC1C=COC2(C)Oc3c(C)c(O)c4c(c3C2=O)C(=O)C=C(NC(=O)C(C)=CC=CC(C)C(O)C(C)C(O)C(C)C(OC(C)=O)C1C)C4=O (centres unmarked) [rifamycin S]
